Experimental data taken from patent US8952024B2, “Herbicidal pyrimidone derivatives” (E I du Pont de Nemours and Company, priority 2009, dated 2015).

Tests used:
Test in all cases: Test B pre-/postemergence plant response
Assay type in all cases: in vivo
[1] = tested on: Italian ryegrass (Lolium multiflorum)
Method in brief: (§1)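 Visual injury, 0–100 scale (100 = complete control), rated against controls after 13 to 15 days in greenhouse. Pre-emergence: seeds in loam/sand soil, treated at planting. Post-emergence: 1- to 4-leaf plants (2 to 18 cm) in peat/vermiculite medium. Compounds formulated in non-phytotoxic solvent with surfactant.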

[2] = tested on: Surinam grass (Brachiaria decumbens)
Method in brief: as §1

[3] = tested on: bermudagrass (Cynodon dactylon)
Method in brief: as §1

[4] = tested on: blackgrass (Alopecurus myosuroides)
Method in brief: as §1

[5] = tested on: cocklebur (Xanthium strumarium)
Method in brief: as §1

corn (Zea mays) = tested on: corn (Zea mays)
Method in brief: as §1

[6] = tested on: downy bromegrass (Bromus tectorum)
Method in brief: as §1

[7] = tested on: green foxtail (Setaria viridis)
Method in brief: as §1

kochia (Kochia scoparia) = tested on: kochia (Kochia scoparia)
Method in brief: as §1

[8] = tested on: lambsquarters (Chenopodium album)
Method in brief: as §1

[9] = tested on: large crabgrass (Digitaria sanguinalis)
Method in brief: as §1

[10] = tested on: pigweed (Amaranthus retroflexus)
Method in brief: as §1

[11] = tested on: ragweed (common ragweed, Ambrosia elatior)
Method in brief: as §1

soybean (Glycine max) = tested on: soybean (Glycine max)
Method in brief: as §1

[12] = tested on: velvetleaf (Abutilon theophrasti)
Method in brief: as §1

wild oat (Avena fatua) = tested on: wild oat (Avena fatua)
Method in brief: as §1

[13] = tested on: yellow nutsedge (Cyperus esculentus)
Method in brief: as §1

[14] = 31 g ai/ha, postemergence, scale 0 to 100, 0 is no effect, 100 is complete control
[15] = 62 g ai/ha, postemergence, 0 is no effect, 100 is complete control, 13 to 15 days
[16] = Postemergence, 125 g ai/ha, visual rating after 13 to 15 days, scale 0 (no effect) to 100 (complete control)
[17] = Postemergence, 250 g ai/ha, scale 0 to 100 (0 no effect, 100 complete control)
[18] = Preemergence, 31 g ai/ha, scale 0 to 100 (0 no effect, 100 complete control)
[19] = Preemergence, 62 g ai/ha, scale 0 to 100, 0 no effect, 100 complete control
[20] = Preemergence, 125 g ai/ha, scale 0 to 100, 0 no effect, 100 complete control
[21] = 250 g ai/ha, Preemergence, 0 to 100 scale

CC(C)Cc1ncc(C(=O)C2=C(O)CCCC2=O)c(=O)n1-c1ccccc1 [Compound 68]
Plant response rating, Ryegrass, Italian [1, 14]: 5 | Ryegrass, Italian plant response rating (0 to 100 scale) [1, 15]: 5 | Plant response rating, Ryegrass, Italian [1, 16]: 15 | Plant response rating, Ryegrass, Italian [1, 17]: 50 | Plant response rating, Ryegrass, Italian [1, 18]: 0 | Plant response rating, Ryegrass, Italian [1, 19]: 0 | Plant response rating, Ryegrass, Italian [1, 20]: 0 | Plant response rating, Surinam Grass [2, 14]: 25 | Surinam Grass plant response rating (0 to 100 scale) [2, 15]: 55 | Plant response rating, Surinam Grass [2, 16]: 70 | Plant response rating, Surinam Grass [2, 17]: 90 | Plant response rating, Surinam Grass [2, 18]: 45 | Plant response rating, Surinam Grass [2, 19]: 50 | Plant response rating, Surinam Grass [2, 20]: 55 | Plant response rating, Bermudagrass [3, 14]: 75 | Bermudagrass plant response rating (0 to 100 scale) [3, 15]: 75 | Plant response rating, Bermudagrass [3, 21]: 100 | Plant response rating, Bermudagrass [3, 16]: 95 | Plant response rating, Bermudagrass [3, 17]: 98 | Plant response rating, Bermudagrass [3, 18]: 95 | Plant response rating, Bermudagrass [3, 19]: 98 | Plant response rating, Bermudagrass [3, 20]: 98 | Plant response rating, Blackgrass [4, 14]: 0 | Blackgrass plant response rating (0 to 100 scale) [4, 15]: 0 | Plant response rating, Blackgrass [4, 21]: 5 | Plant response rating, Blackgrass [4, 16]: 0 | Plant response rating, Blackgrass [4, 17]: 20 | Plant response rating, Blackgrass [4, 18]: 0 | Plant response rating, Blackgrass [4, 19]: 0 | Plant response rating, Blackgrass [4, 20]: 0 | Plant response rating, Cocklebur [5, 14]: 25 | Cocklebur plant response rating (0 to 100 scale) [5, 15]: 75 | Plant response rating, Cocklebur [5, 21]: 80 | Plant response rating, Cocklebur [5, 16]: 90 | Plant response rating, Cocklebur [5, 17]: 90 | Plant response rating, Cocklebur [5, 18]: 0 | Plant response rating, Cocklebur [5, 19]: 10 | Plant response rating, Corn (corn (Zea mays); [14]): 0 | Corn plant response rating (0 to 100 scale) (corn (Zea mays); [15]): 15 | Plant response rating, Corn (corn (Zea mays); [21]): 0 | Plant response rating, Corn (corn (Zea mays); [16]): 80 | Plant response rating, Corn (corn (Zea mays); [17]): 80 | Plant response rating, Corn (corn (Zea mays); [18]): 0 | Plant response rating, Corn (corn (Zea mays); [19]): 0 | Plant response rating, Corn (corn (Zea mays); [20]): 0 | Plant response rating, Bromegrass, Downy [6, 14]: 5 | Bromegrass, Downy plant response rating (0 to 100 scale) [6, 15]: 5 | Plant response rating, Bromegrass, Downy [6, 21]: 5 | Plant response rating, Bromegrass, Downy [6, 16]: 25 | Plant response rating, Bromegrass, Downy [6, 17]: 40 | Plant response rating, Bromegrass, Downy [6, 18]: 0 | Plant response rating, Bromegrass, Downy [6, 19]: 0 | Plant response rating, Bromegrass, Downy [6, 20]: 0 | Plant response rating, Foxtail, Green [7, 14]: 40 | Foxtail, Green plant response rating (0 to 100 scale) [7, 15]: 85 | Plant response rating, Foxtail, Green [7, 21]: 85 | Plant response rating, Foxtail, Green [7, 16]: 85 | Plant response rating, Foxtail, Green [7, 17]: 95 | Plant response rating, Foxtail, Green [7, 18]: 0 | Plant response rating, Foxtail, Green [7, 19]: 5 | Plant response rating, Foxtail, Green [7, 20]: 25 | Plant response rating, Kochia (kochia (Kochia scoparia); [14]): 70 | Kochia plant response rating (0 to 100 scale) (kochia (Kochia scoparia); [15]): 90 | Plant response rating, Kochia (kochia (Kochia scoparia); [21]): 95 | Plant response rating, Kochia (kochia (Kochia scoparia); [16]): 95 | Plant response rating, Kochia (kochia (Kochia scoparia); [17]): 98 | Plant response rating, Kochia (kochia (Kochia scoparia); [18]): 80 | Plant response rating, Kochia (kochia (Kochia scoparia); [19]): 80 | Plant response rating, Kochia (kochia (Kochia scoparia); [20]): 95 | Plant response rating, Lambsquarters [8, 14]: 95 | Lambsquarters plant response rating (0 to 100 scale) [8, 15]: 98 | Plant response rating, Lambsquarters [8, 21]: 100 | Plant response rating, Lambsquarters [8, 16]: 100 | Plant response rating, Lambsquarters [8, 17]: 100 | Plant response rating, Lambsquarters [8, 18]: 98 | Plant response rating, Lambsquarters [8, 19]: 98 | Plant response rating, Lambsquarters [8, 20]: 98 | Plant response rating, Crabgrass, Large [9, 14]: 75 | Crabgrass, Large plant response rating (0 to 100 scale) [9, 15]: 90 | Plant response rating, Crabgrass, Large [9, 21]: 100 | Plant response rating, Crabgrass, Large [9, 16]: 90 | Plant response rating, Crabgrass, Large [9, 17]: 98 | Plant response rating, Crabgrass, Large [9, 18]: 65 | Plant response rating, Crabgrass, Large [9, 19]: 95 | Plant response rating, Crabgrass, Large [9, 20]: 98 | Plant response rating, Pigweed [10, 14]: 85 | Pigweed plant response rating (0 to 100 scale) [10, 15]: 95 | Plant response rating, Pigweed [10, 16]: 100 | Plant response rating, Pigweed [10, 17]: 100 | Plant response rating, Pigweed [10, 18]: 95 | Plant response rating, Pigweed [10, 19]: 98 | Plant response rating, Pigweed [10, 20]: 100 | Plant response rating, Ragweed [11, 14]: 75 | Ragweed plant response rating (0 to 100 scale) [11, 15]: 80 | Plant response rating, Ragweed [11, 16]: 80 | Plant response rating, Ragweed [11, 17]: 95 | Plant response rating, Ragweed [11, 18]: 10 | Plant response rating, Ragweed [11, 19]: 75 | Plant response rating, Ragweed [11, 20]: 80 | Plant response rating, Soybean (soybean (Glycine max); [14]): 80 | Soybean plant response rating (0 to 100 scale) (soybean (Glycine max); [15]): 95 | Plant response rating, Soybean (soybean (Glycine max); [16]): 98 | Plant response rating, Soybean (soybean (Glycine max); [17]): 98 | Plant response rating, Velvetleaf [12, 14]: 95 | Velvetleaf plant response rating (0 to 100 scale) [12, 15]: 100 | Plant response rating, Velvetleaf [12, 16]: 100 | Plant response rating, Velvetleaf [12, 17]: 100 | Plant response rating, Velvetleaf [12, 18]: 95 | Plant response rating, Velvetleaf [12, 19]: 100 | Plant response rating, Velvetleaf [12, 20]: 100 | Plant response rating, Oat, Wild (wild oat (Avena fatua); [14]): 5 | Oat, Wild plant response rating (0 to 100 scale) (wild oat (Avena fatua); [15]): 20 | Plant response rating, Oat, Wild (wild oat (Avena fatua); [16]): 50 | Plant response rating, Oat, Wild (wild oat (Avena fatua); [17]): 70 | Plant response rating, Oat, Wild (wild oat (Avena fatua); [18]): 0 | Plant response rating, Oat, Wild (wild oat (Avena fatua); [19]): 0 | Plant response rating, Oat, Wild (wild oat (Avena fatua); [20]): 0 | Plant response rating, Nutsedge, Yellow [13, 14]: 0 | Nutsedge, Yellow plant response rating (0 to 100 scale) [13, 15]: 10 | Plant response rating, Nutsedge, Yellow [13, 16]: 70 | Plant response rating, Nutsedge, Yellow [13, 17]: 80 | Plant response rating, Nutsedge, Yellow [13, 18]: 0 | Plant response rating, Nutsedge, Yellow [13, 19]: 70 | Plant response rating, Nutsedge, Yellow [13, 20]: 85
